# Experimental data: ChEMBL document CHEMBL5579800, “Further structural optimization and SAR study of sungsanpin derivatives as cell-invasion inhibitors” (Bioorg Med Chem Lett, 2024)
# The source made the active and inactive calls. The calls are words filed in the database; no cut-off is given here. Where a SMILES comes first, the peptide text is derived from it.
# Key:
# [1] = test system: A549; experiment: Cytotoxicity against human A549 cells assessed as cell viability upto 100 uM by CCK8 assay; assay type: toxicity, cell-based; conditions: a549, 100 µM
# [2] = test system: A549; experiment: Inhibition of cell invasion in human A549 cells at 25 to 100 uM; assay type: functional, cell-based; conditions: dose 25-100 µM
# [3] = test system: A549; experiment: Upregulation of TIMP-1 level in human A549 cells at 100 uM by Western blot analysis; assay type: functional, cell-based
# [4] = test system: A549; experiment: Upregulation of TIMP-2 level in human A549 cells at 100 uM by Western blot analysis; assay type: functional, cell-based
# [5] = test system: A549; experiment: Downregulation of MMP-2 level in human A549 cells at 100 uM by Western blot analysis; assay type: functional, cell-based
# [6] = test system: A549; experiment: Upregulation of TIMP-1 mRNA level in human A549 cells at 100 uM by qPCR analysis; assay type: functional, cell-based
# [7] = test system: A549; experiment: Upregulation of TIMP-2 mRNA level in human A549 cells at 100 uM by qPCR analysis; assay type: functional, cell-based
# [8] = test system: A549; experiment: Inhibition of cell invasion in human A549 cells at 100 uM; assay type: functional, cell-based
# [9] = test system: A549; experiment: Inhibition of cell invasion in human A549 cells; assay type: functional, cell-based; conditions: dose 25-100 µM
# [10] = test system: A549; experiment: Inhibition of cell invasion in human A549 cells by microscopy; assay type: functional, cell-based; conditions: dose 25-100 µM
# [11] = Stability in human serum assessed as compound remaining measured after 24 hrs by HPLC analysis; assay type: ADME, cell-free; conditions: read-out: Stability
# [12] = Stability in human serum assessed as half life by HPLC analysis; assay type: ADME, cell-free
# [13] = test system: A549; experiment: Inhibition of cell invasion in human A549 cells at 100 uM by microscopy; assay type: functional, cell-based
# [14] = test system: A549; experiment: Downregulation of MMP-9 level in human A549 cells at 100 uM by Western blot analysis; assay type: functional, cell-based
molecule,measurement,setting,value
H-DSFVLSWL-OH,Activity,[1],Non-Toxic
same,inhibition,[2],Active
same,Activity,[3],Active
same,Activity,[4],inactive
same,Activity,[5],Active
same,Activity,[6],Active
same,Activity,[7],inactive
H-DSFRLSWL-OH,Activity,[1],Non-Toxic
Ac-DSFGLSWL-NH2,Activity,[1],Non-Toxic
same,inhibition,[8],inactive
CC(C)C[C@@H]1NC(=O)[C@H](C)NC(=O)[C@H](Cc2ccccc2)NC(=O)[C@H](CO)NC(=O)[C@H](CC(=O)O)NC(=O)[C@H](CC(C)C)NC(=O)[C@H](Cc2c[nH]c3ccccc23)NC(=O)[C@H](CO)NC1=O (cyclo(ALSWLDSF)),Activity,[1],Non-Toxic
same,inhibition,[9],Dose-Dependent Effect
same,inhibition,[10],Dose-Dependent Effect
same,remaining at 24 h,[11],> 80%
same,half-life,[12],> 24 h
same,Activity,[3],Active
same,Activity,[4],inactive
same,Activity,[6],Active
same,Activity,[7],Active
CC(C)C[C@@H]1NC(=O)CNC(=O)[C@H](Cc2ccccc2)NC(=O)[C@H](CO)NC(=O)[C@H](CC(=O)O)NC(=O)[C@H](CC(C)C)NC(=O)[C@H](Cc2c[nH]c3ccccc23)NC(=O)[C@H](CO)NC1=O (cyclo(DSFGLSWL)),Activity,[1],Non-Toxic
H-DSFALSWL-OH,Activity,[1],Non-Toxic
same,inhibition,[8],Active
same,inhibition,[9],Dose-Dependent Effect
same,inhibition,[13],Active
same,remaining at 24 h,[11],~23%
same,Activity,[3],Active
same,Activity,[4],inactive
same,Activity,[14],Active
same,Activity,[6],Active
same,Activity,[7],Active
H-DSFGLSWA-OH,Activity,[1],Non-Toxic
same,inhibition,[8],inactive
H-DSAGLSWL-OH,Activity,[1],Non-Toxic
H-DSFGASWL-OH,Activity,[1],Non-Toxic
same,inhibition,[8],inactive
H-ASFGLSWL-OH,Activity,[1],Non-Toxic
same,inhibition,[8],inactive
H-DSFLLSWL-OH,Activity,[1],Non-Toxic
same,inhibition,[2],inactive
H-DSFGLSWL-OH,Activity,[1],Non-Toxic
H-DSFDLSWL-OH,Activity,[1],Non-Toxic
H-DAFGLSWL-OH,Activity,[1],Non-Toxic
same,inhibition,[8],inactive
H-DSFGLAWL-OH,Activity,[1],Non-Toxic
H-DSFGLSAL-OH,Activity,[1],Non-Toxic
same,inhibition,[8],inactive
H-DSFKLSWL-OH,Activity,[1],Non-Toxic
same,inhibition,[9],Dose-Dependent Effect
same,Activity,[3],Active
same,Activity,[4],inactive
same,Activity,[5],Active
same,Activity,[6],Active
same,Activity,[7],inactive
CC(C)C[C@@H]1NC(=O)[C@H](CCCCN)NC(=O)[C@H](Cc2ccccc2)NC(=O)[C@H](CO)NC(=O)[C@H](CC(=O)O)NC(=O)[C@H](CC(C)C)NC(=O)[C@H](Cc2c[nH]c3ccccc23)NC(=O)[C@H](CO)NC1=O (cyclo(DSFKLSWL)),Activity,[1],Non-Toxic
